Columns and labels:
Format in all cases: cell-based
[1] = test system: iPSC-derived peripheral neurons; assay: Two-color stress sensor (SEQ ID NO: 6): percentage of ER-stressed cells after chemotherapeutic treatment; details: 24 hours of incubation
Source text: The two-color biosensor described in Example 5 above (RFP-GFP stress sensor; SEQ ID NO: 6) may be used to calculate the percent of cells undergoing ER stress, and may be used as measurement technique to detect side effects induced by chemotherapeutics. In order to determine the percentage of cells in population experiencing ER-stress following exposure to a ER-stress-inducing compound, iPSC-derived peripheral neurons were transduced with the two-color stress sensor described in Example 5 above. The cells were treated with the chemotherapeutic vincristine at concentrations of 0.0001 μM, 0.01 μM, and 0.1 μM. Measurement of the red fluorescence was used to identify transduced cells and measurement of green fluorescence identifies stressed cells. Stressed and unstressed cells were counted to quantify the percentage of stressed cells in the population.
Peri.4U peripheral neurons from Ncardia were plated onto 96-well plates according to the manufacturer's instructions. Cells were incubated for 2 days at 37° C. and 5% CO2 and the media was changed every 24 hours, using Ncardia neuro supplement media. […] Those cells that expressed both the constitutively expressed red nuclear marker and the green, stress induced, nuclear fluorescence were considered stressed, while those only expressing the red marker were considered unstressed. […]

[2] = test system: HEK293T cells; assay: Two-color stress sensor fluorescence monitored over 24 hours after thapsigargin; details: 1 μM vs DMSO, 24 hours monitoring
Experimental: (§1) HEK293T cells were transduced with 25 μL of the nucleic acid construct of SEQ ID NO: 6. The construct was transduced into 48,000 HEK293T cell in FluoroBrite media and the cells were incubated at 37° C. and 5% CO2 for 16 hours. A final concentration of 1 μM thapsigargin was added to the cells. For RT-PCR analysis a total of 2 μg of total RNA was isolated form 6 wells of cells grown on 96-well Greiner plates coated in poly-D-lysine. RNA was isolated using the Zymo Quick RNA microprep kit according to the manufacturer's instructions. mRNA was converted to cDNA by reverse transcription using M-MLV reverse transcriptase from Promega and an oligo dT primer according to the manufacturer's instructions. […] PCR products were then analyzed on a 2% agarose gel. […] All images were obtained using a Zeiss Axiovert fluorescence microscope with standard RFP and GFP excitation and emission filter sets. […] The media was supplemented with 25 mM HEPES and the cells were incubated in the BioTek Synergy MX plate reader at 37° C. for 24 hours. Green fluorescence was monitored using excitation and emission wavelengths of 485 nm and 528 nm respectively, while red fluorescence was monitored using 558 nm/603 nm excitation and emission wavelengths. […] The percentage of change in green, red, and green/red ratio fluorescence was then calculated.

[3] = test system: HEK293T cells; assay: RT-PCR of spliced/unspliced sensor mRNA (XBP1 intron splicing) after thapsigargin
Source text: A second nucleic acid construct (SEQ ID NO: 6) was constructed and tested. This nucleic acid construct is a red fluorescent protein (RFP) with a nuclear localization sequence, placed upstream of the XBP1 intron sequence. A T2A peptide encoding sequence is placed after the RFP sequence. This is followed by a partial sequence from the endogenous XBP1 gene that encodes a region of the protein important for regulating its stability. This partial XBP1 sequence is fused to the mNeonGreen coding sequence. Upon stress activation the XBP1 intron sequence is removed, this removes a stop codon, shifts the reading frame, and allows for translation of the XBP1-mNeonGreen fusion construct. This construct was transfected into HEK293T cells, which were then treated with 1 μM thapsigargin or DMSO vehicle control to induce ER stress. Isolated mRNA from the treated cells was then analyzed for intron splicing using RT-PCR (see van Schadewijk et al., 2012).
as §1, with “poly-D-lysine.” for “poly-D-lysine. RNA was isolated using the Zymo Quick RNA microprep kit according to the manufacturer's instructions. mRNA was converted to cDNA by reverse transcription using M-MLV reverse transcriptase from Promega and an oligo dT primer according to the manufacturer's instructions.”

[4] = test system: HEK293T cells; assay: Multiplex Ca2+ biosensor (SEQ ID NO: 4) in cells stressed with thapsigargin, carbachol stimulation
Experimental: In order to analyze the calcium response of cells exposed to an ER-stress inducing molecule, HEK293T cells transfected with the nucleic acid construct described in FIG. 1 were exposed to thapsigargin to induce ER stress. Thapsigargin is an inhibitor of the sarcoplasmic/endoplasmic reticulum Ca^2+ ATPase that inhibits the autophagic process and induces ER stress. The calcium signaling properties of the thapsigargin-treated cells was measured as described below. HEK293T cells were transfected with SEQ ID NO: 4 as follows. 27,000 cells per well in 100 μL of EMEM media were plated onto Greiner 96-well plates coated with poly-D lysine. The cells were incubated for 24 hours at 37° C. and 5% CO2. 100 ng of plasmid DNA expressing SEQ ID NO: 4 and 10 ng of plasmid expressing human muscarinic receptor 1 were then transfected using FUGENE as follows. 100 ng of DNA expressing SEQ ID NO: 4 and 10 ng of DNA expressing human muscarinic receptor 1 were combined with 0.4 μL of FUGENE and brought to a final volume of 50 μL using OPTIMEM serum free media and incubated for 20 mins at 25° C. then added to the cells. After 16 hours the cells were treated with a final concentration of 1 μM thapsigargin for 5 hours to induce ER stress. The cells were then washed 5× with 100 μL DPBS and 150 μL of DPBS was added to the wells. The cells were imaged using a Zeiss Axiovert fluorescence microscope using standard Green Fluorescent Protein (GFP) and Red Fluorescent Protein (RFP) excitation and emission filters. Images were obtained in both the red and green channels every 2 seconds for 100 seconds. A final concentration of 50 μM carbachol was added to the wells to stimulate Gq signaling after 20 seconds, releasing intracellular Ca^2+ stores for detection by the biosensor. The images were analyzed as follows. Cells were identified as either stressed or unstressed based on their green fluorescence intensity. The Ca^2+ signaling response upon Gq stimulation was monitored in the red fluorescence channel.

[5] = test system: HEK293T cells; assay: Multiplex Ca2+ biosensor (SEQ ID NO: 4) in cells stressed by P23H rhodopsin mutant, carbachol stimulation; details: 50 μM, P23H rhodopsin mutant co-expressed
Experimental: In order to analyze the calcium response of cells expressing a mutant protein, HEK293T cells were transfected with both the nucleic acid construct described in FIG. 1 and a mutant rhodopsin protein (P23H). The P23H mutation in rhodopsin causes retinitis pigmentosa (Rivolta et al. 2002), an inherited form of blindness that develops gradually over the first decade of life.
The experiment in FIG. 4 was conducted the same as in FIG. 3 with the following modifications. 100 ng of a plasmid expressing the P23H rhodopsin mutation was co-transfected with the plasmid expressing SEQ ID NO: 4 and 10 ng of human muscarinic receptor 1. After 24 hours the cells were treated with 50 μM carbachol as described in Example 1 above, and the Ca^2+ signaling was monitored in the red fluorescence channel for cells identified as stressed or unstressed based on their green fluorescence intensity.

## CC[C@]1(O)C[C@H]2CN(CCc3c([nH]c4ccccc34)[C@@](C(=O)OC)(c3cc4c(cc3OC)N(C=O)[C@H]3[C@@](O)(C(=O)OC)[C@H](OC(C)=O)[C@]5(CC)C=CCN6CC[C@]43[C@@H]65)C2)C1 [vincristine]
[1]; 0.01 μM, p<0.00011
  percentage of stressed cells compared to control treatment: statistically significant percentages of stressed cells
[1]; 0.1 μM, p<2.3e−05
  percentage of stressed cells compared to control treatment: statistically significant percentages of stressed cells

## C/C=C(/C)C(=O)O[C@H]1C(C)=C2[C@H]([C@@H]1OC(=O)CCCCCCC)[C@@](C)(OC(C)=O)C[C@H](OC(=O)CCC)[C@@]1(O)[C@H]2OC(=O)[C@@]1(C)O [thapsigargin]
[2]
  green stress induced fluorescence over time: appears rapidly, then disappears by 24 hours
[3]; 1 μM
  persistence of spliced sensor band (recovery from stress): disappears after 24 hours
  time of peak intensity of spliced sensor band post-treatment: 2.5 h
[3]; 1 μM vs DMSO, 30 minutes, 2.5, 6 and 24 hours
  appearance of spliced version of the sensor (lower band): appears only in the thapsigargin treated cells
[4]; 1 μM for 5 hours
  mNeonGreen expression (ER stress marker): the mNeonGreen protein due to the ER stress induced by the thapsigargin treatment

## C[N+](C)(C)CCOC(N)=O [carbachol]
[4]; 50 μM, stressed (mNeonGreen) vs unstressed cell
  Ca2+ response in ER-stressed cells compared to surrounding healthy cells: blunted, smaller amplitude response
[4]; 50 μM, thapsigargin-treated cells
  red fluorescence of Ca2+ biosensor after treatment: visible increase in red fluorescence
[5]
  release of intracellular Ca2+ stores, stressed vs unstressed cells: blunted in the stressed cells compared to the unstressed cells

From patent US20200393447A1, “BIOSENSORS FOR MEASURING CELL SIGNALING IN STRESSED AND HEALTHY CELLS” (MONTANA MOLECULAR LLC, priority 2017, published 2020)
